From paper PMC6222624, “Identification of Alkaloids from Corydalis yanhusuo W. T. Wang as Dopamine D1 Receptor Antagonists by Using CRE-Luciferase Reporter Gene Assay” (Molecules : A Journal of Synthetic Chemistry and Natural …, 2018) come the findings set out here.

Like-named read-outs stand apart in the source and are kept apart here.

One assay concerns the target T1, dopamine D1 receptor (Homo sapiens, UniProt P21728).
T1 construct: Dopamine D1 receptor gene cloned in pcDNA 3.1 was kindly provided by Dr. Olivier Civelli; expressed in transfected cells
Nature of the assay: CRE-luciferase reporter gene assay in HEK-D1/CRE/Luc2P cells. It is filed as cell-based. Particulars: for antagonist profile in luciferase reporter gene assay: concentration-response, Figure 4A / Figure S3; for antagonist profile in luciferase reporter gene assay / Emax: dopamine 2 nM; for Emax: read-out: % Maximal Inhibition Mean ± SD (N = 3), Luciferase; for inhibition at 12.5 µM: single screening concentration 12.5 μM, read-out: inhibition in single-concentration screening (activity threshold). From the text: The cDNA plasmids of dopamine D1 receptor and CRE/Luci were stably co-transfected into human embryonic kidney-293 cells (HEK293) cells (HEK-D1/CRE/Luc2P). Activation of D1 receptors leads to the elevation of cAMP and activates the cAMP response element (CRE) and therefore induces the expression of the reporter gene luciferase. We used the natural ligand dopamine as a positive control to select the cell colony and to optimize and characterize the HEK-D1/CRE/Luc2P cell system.
(§1) The pGL4.29 (CRE/luc2P//Hygro) luciferase reporter gene was stably co-transfected with dopamine D1 receptor plasmid or was stably transfected individually in HEK293 cells. Transfection was carried out with lipofectamine 2000 reagent using the protocol provided by Promega. Stable cells expressing CRE-Luciferase and D1 receptor were selected in the presence of 700 μg/mL G418 and 200 μg/mL hygromycin for 10–14 days. Stable cells expressing CRE-Luciferase were singly selected in the presence of 200 μg/mL hygromycin. The obtained stable cells were then cultured with 350 μg/mL G418 and 100 μg/mL hygromycin or only 100 μg/mL hygromycin to maintain the selective growth.
(§2) The examination of CRE-luciferase activity was performed by a modification of methods as described previously. HEK293 stable cells were seeded in 96-well plates at a density of 1.5 × 10^4 cells per well. After cells became adherent, they were […] in serum-starved DMEM for different hours to explore the most suitable starving time. Cells were then pretreated with compounds for 1 h prior to dopamine stimulation. Afterwards, the cells were lysed with luciferase lysis buffer and the luminescence of the firefly luciferase was measured with the FlexStation 3 (Molecular Devices, Sunnyvale, CA, USA).
(§3) All statistical calculations were performed using GraphPad Prism 5.0 (GraphPad, Avenida, CA, USA). Data from each dose-response curve were normalized to the maximal stimulation by dopamine. At least three independent experiments were performed.

In a further assay the target is T2, human D1 receptors (Homo sapiens, UniProt P21728).
T2 construct: The cDNA plasmids of D1-like receptors were stably transfected into HEK 293T cells; expressed in transfected cells
T2 sequence (P21728 whole entry): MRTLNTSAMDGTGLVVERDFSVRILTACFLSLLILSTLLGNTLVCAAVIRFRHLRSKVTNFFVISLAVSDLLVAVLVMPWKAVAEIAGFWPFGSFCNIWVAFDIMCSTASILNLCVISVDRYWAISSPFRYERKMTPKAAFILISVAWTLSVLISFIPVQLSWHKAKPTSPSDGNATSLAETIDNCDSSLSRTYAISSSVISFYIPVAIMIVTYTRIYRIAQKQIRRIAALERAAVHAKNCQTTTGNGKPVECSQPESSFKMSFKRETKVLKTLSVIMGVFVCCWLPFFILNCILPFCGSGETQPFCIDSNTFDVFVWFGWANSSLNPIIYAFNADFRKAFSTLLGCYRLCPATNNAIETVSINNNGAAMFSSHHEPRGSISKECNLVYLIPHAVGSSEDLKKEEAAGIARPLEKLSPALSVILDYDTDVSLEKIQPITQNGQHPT
Nature of the assay: Fluorescent Ca2+ mobilization assay (FLIPR) in HEK 293T cells expressing D1 receptors and Gα15. The conditions noted are these: for antagonist profile in FLIPR assay: concentration-response, Figure 4B; for antagonist profile in FLIPR assay / % Maximal Inhibition Mean ± SD (N = 3), FLIPR: dopamine 500 nM. It is filed as cell-based. On the procedure:
We used a fluorescent Ca^2+ mobilization assay to further evaluate the hit compounds obtained from the luciferase reporter gene assay screens. […] With the coexpression of Gα15 protein, D1 receptors can be redirected to mediate intracellular calcium mobilization upon stimulation. Calcium levels were monitored using fluorometric imaging plate reader (FLIPR). The assay can also distinguish potential antagonists from agonists.
Fluorescent Ca^2+ mobilization assay was performed using Flu-4 AM reagent as reported earlier.
as §3

A further assay concerns HEK/CRE/Luc2P cells. Nature of the assay: Specificity control: forskolin-stimulated CRE-luciferase response in HEK/CRE/Luc2P negative control cells. It is filed as cell-based, human. Particulars: for decrease of forskolin-stimulated response (cAMP levels): forskolin 1 μM, high doses of compound, Figure S2. On the procedure: HEK293 cells stably expressing cDNA plasmid of CRE/Luciferase (HEK/CRE/Luc2P) were established as the negative control cells to test the specificity to the D1 receptor for the compounds.
as §1, §2
In general terms: Cyclic AMP is a second messenger, typically raised through Gs and lowered through Gi signalling.

[1] abbreviates: inhibition of dopamine (2 nM) response, HEK-D1/CRE/Luc2P cells, IC50 based on the degree of maximal inhibition, read-out: IC50 (μM) with 95% Confidence Intervals, Luciferase.
Where [2] appears, read: inhibition of dopamine (500 nM) Ca2+ mobilization, HEK-D1/Gα15 cells, IC50 based on the degree of maximal inhibition, read-out: IC50 (μM) with 95% Confidence Intervals, FLIPR.

T1 sequence (P21728 whole entry): as above

For the molecule `COc1cc2c(cc1O)C1Cc3ccc(OC)c(OC)c3C[N+]1(C)CC2` (stereo not shown) [Compound 10, N-methyltetrahydrocolumbamine], at dopamine D1 receptor, the “antagonist profile in luciferase reporter gene assay” value was “partial antagonist effects” and the inhibition at 12.5 µM is not below 50%. Also, the Emax on dopamine D1 receptor (HEK-D1/CRE/Luc2P cells) came out at 78.2 ± 1.78%. At dopamine D1 receptor (setting [1]), the IC50 – broadly, the midpoint of a concentration-inhibition curve – was 13.4 µM. Further, the “antagonist profile in FLIPR assay” value at human D1 receptors is “weak inhibitory effects”.
As for `C=C[C@@]1(C)CC(=O)[C@]2(O)[C@@]3(C)[C@@H](O)CCC(C)(C)[C@@H]3[C@H](O)[C@H](OC(C)=O)[C@@]2(C)O1` [Forskolin, reference compound], the EC50 (in general, the concentration that produces a half-maximal response) in the assay on HEK/CRE/Luc2P cells (Homo sapiens, Figure S1, read-out: EC50 for increasing intracellular cAMP (CRE-luciferase)) is 1200 nM.
On to `COc1cc2c(cc1OC)-c1cc3ccc(OC)c(OC)c3c[n+]1CC2` [Compound 8, Palmatine], for which, at dopamine D1 receptor, the IC50 was 7.08 µM and the inhibition at 12.5 µM was not below 50%. Further, at dopamine D1 receptor (HEK-D1/CRE/Luc2P cells), the Emax was 93.86 ± 0.437%. For the same molecule, the “decrease of forskolin-stimulated response (cAMP levels)” value with HEK/CRE/Luc2P cells is on record as 25%. The “antagonist profile in FLIPR assay” value at human D1 receptors is recorded as “weak inhibitory effects”.
For `COc1cc2c(cc1OC)[C@@H]1Cc3ccc(OC)c(OC)c3CN1CC2` [Compound 2, Tetrahydropalmatine], on dopamine D1 receptor, the “antagonist profile in luciferase reporter gene assay” value is reported as “partial antagonist effects” and the inhibition at 12.5 µM is not below 50%. Further, the Emax on dopamine D1 receptor (HEK-D1/CRE/Luc2P cells) came out at 72.5 ± 4%. In addition, the IC50 at dopamine D1 receptor (setting [1]) stood at 0.644 µM. Also, the “antagonist profile in FLIPR assay” value on human D1 receptors is listed as “concentration-dependent antagonist responses”. Also, the “% Maximal Inhibition Mean ± SD (N = 3), FLIPR” value (shortened to “% Maximal Inhibition Mean ± SD”) on human D1 receptors (HEK-D1/Gα15 cells) was found to be 92.64 ± 1.7945%. On human D1 receptors (setting [2]), the IC50 is 2.24 µM.
Take `COc1cc2c(cc1OC)-c1c(C)c3ccc(O)c(OC)c3c[n+]1CC2` [Compound 5, 13-methyldehydrocorydalmine]: the Emax on dopamine D1 receptor (HEK-D1/CRE/Luc2P cells) was found to be 86 ± 1.76%. In addition, the IC50 on dopamine D1 receptor (setting [1]) stood at 10.3 µM; on human D1 receptors (setting [2]) it was 3.08 µM. In addition, the inhibition at 12.5 µM at dopamine D1 receptor was not below 50%. In addition, the “decrease of forskolin-stimulated response (cAMP levels)” value in the assay on HEK/CRE/Luc2P cells was determined as 25%. Moreover, the “antagonist profile in FLIPR assay” value at human D1 receptors is given as “concentration-dependent antagonist responses”. The “% Maximal Inhibition Mean ± SD” value on human D1 receptors (HEK-D1/Gα15 cells) is reported as 77.04 ± 6.6410%.
Consider `COc1cc2c(cc1O)-c1cc3ccc(OC)c(OC)c3c[n+]1CC2` [Compound 9, Columbamine], for which, on dopamine D1 receptor, half-maximal inhibition (IC50) was put at 1.21 µM and the inhibition at 12.5 µM was not below 50%. Also, the Emax on dopamine D1 receptor (HEK-D1/CRE/Luc2P cells) turned out to be 97.5 ± 0.218%. Besides, on human D1 receptors, the IC50 came to 3.4 µM and the “antagonist profile in FLIPR assay” value is given as “concentration-dependent antagonist responses”. Moreover, the “% Maximal Inhibition Mean ± SD” value on human D1 receptors (HEK-D1/Gα15 cells) is reported as 86.43 ± 0.7188%.
Take `COc1cc2c(cc1OC)-c1c(C)c3ccc(OC)c(OC)c3c[n+]1CC2` [Compound 7, Dehydrocorydaline]: the Emax on dopamine D1 receptor (HEK-D1/CRE/Luc2P cells) was 98.23 ± 0.33%. Also, the IC50 at dopamine D1 receptor (setting [1]) was 1.29 µM; at human D1 receptors (setting [2]), 1.53 µM. For the same molecule, at dopamine D1 receptor, the inhibition at 12.5 µM is not below 50%. In addition, the “antagonist profile in FLIPR assay” value on human D1 receptors is “concentration-dependent antagonist responses”. In addition, the “% Maximal Inhibition Mean ± SD” value at human D1 receptors (HEK-D1/Gα15 cells) is given as 90.61 ± 0.6541%.
Turning to `COc1cc2c(cc1OC)[C@H]1[C@@H](C)c3ccc(OC)c(OC)c3CN1CC2` [Compound 4, Corydaline], the Emax at dopamine D1 receptor (HEK-D1/CRE/Luc2P cells) stood at 83.5 ± 1.45%. For the same molecule, the IC50 amounted to 2.46 µM on dopamine D1 receptor (setting [1]) and 3.36 µM at human D1 receptors (setting [2]). Also, the inhibition at 12.5 µM on dopamine D1 receptor was not below 50%. In addition, at human D1 receptors, the “antagonist profile in FLIPR assay” value was “concentration-dependent antagonist responses”. The “% Maximal Inhibition Mean ± SD” value on human D1 receptors (HEK-D1/Gα15 cells) was found to be 90.32 ± 1.9817%.
For the molecule `COc1cc2c(cc1O)CC[n+]1cc3c(OC)c(OC)ccc3c(C)c1-2` [Compound 6, Dehydrocorybulbine], the Emax at dopamine D1 receptor (HEK-D1/CRE/Luc2P cells) was 97.52 ± 0.626%. Moreover, the figures for the IC50 on dopamine D1 receptor (setting [1]) and on human D1 receptors (setting [2]) were 0.621 µM and 0.612 µM, respectively. In addition, at dopamine D1 receptor, the inhibition at 12.5 µM is not below 50%. Moreover, the “antagonist profile in FLIPR assay” value at human D1 receptors is “concentration-dependent antagonist responses”. Besides, the “% Maximal Inhibition Mean ± SD” value on human D1 receptors (HEK-D1/Gα15 cells) is recorded as 94.38 ± 0.1939%.
